Results taken from patent US20130184337A1, “SODIUM ASCORBATE STIMULATION OF ELASTOGENESIS” (THE HOSPITAL FOR SICK CHILDREN, priority 2012, published 2013).
“Also recorded” adds a separate entry of the source.

Legend:
Type in all cases: cell-based, human
[1] = test system: fat tissue-derived fibroblasts; experiment: Elastin deposition (immuno-staining morphometry, insoluble elastin assay) in fat-derived fibroblasts; details: 50-200 μM, on average, p<0.01
Experimental: Cell Cultures-Fibroblasts initially grew out from the explants of these full thickness skin biopsies and were maintained. The primary cultures of fat-derived fibroblasts obtained from Thermogenesis (Rancho Cordova, Calif.) were also tested. In all described experiments, 2-4 passages of both kinds of fibroblasts were used. In experiments aimed at assessing ECM production, cells were initially plated at a concentration of 100,000 cells/dish. […] Immuno-staining-All cultures maintained in the presence and absence of indicated reagents were either fixed in cold 100% methanol at -20° C. (for detection of elastin) or in 4% paraformaldehyde at room temperature (for detection of collagen I). The multiple parallel cultures were then incubated with 10 μg/ml of polyclonal antibody to tropoelastin (Elastin Products, Owensville, Mich.), or polyclonal antibody to collagen type I (Chemicon, Temecula, Calif.). […] All of the cultures were then examined with a Nikon Eclipse […] microscope attached to a cooled CCD camera (QImaging, Retiga EX) and analyzed by the computer-generated morphometric analysis system (Image-Pro Plus software, Media Cybernetics, Silver Springs, Md.) as previously described. Quantitative Assays of Insoluble Elastin-Fibroblasts were grown to confluency in 35-mm culture dishes (100,000 cells/dish). […]

[2] = test system: normal dermal fibroblasts; experiment: Collagen fiber deposition (immuno-staining of collagen type I, morphometry); details: 100 μM, 24-hour-old cultures, 5% FBS
Experimental: Cell Cultures—Fibroblasts initially grew out from the explants of these full thickness skin biopsies and were maintained. The primary cultures of fat-derived fibroblasts obtained from Thermogenesis (Rancho Cordova, Calif.) were also tested. In all described experiments, 2-4 passages of both kinds of fibroblasts were used. In experiments aimed at assessing ECM production, cells were initially plated at a concentration of 100,000 cells/dish. Confluent cultures were then maintained either in serum-free medium (DMEM) or in medium supplemented with 5% FBS in the presence of different reagents that were added 1 hour before treatments with SA.
Immuno-staining—All cultures maintained in the presence and absence of indicated reagents were either fixed in cold 100% methanol at −20° C. (for detection of elastin) or in 4% paraformaldehyde at room temperature (for detection of collagen I). The multiple parallel cultures were then incubated with 10 μg/ml of polyclonal antibody to tropoelastin (Elastin Products, Owensville, Mich.), or polyclonal antibody to collagen type I (Chemicon, Temecula, Calif.). Cultures were then incubated with the respective fluorescein-conjugated goat anti-rabbit, goat anti-mouse, or rabbit anti-goat secondary antibodies. Nuclei were counterstained with propidium iodide (Sigma, Sigma, St. Louis, Mo.). All of the cultures were then examined with a Nikon Eclipse E1000 microscope attached to a cooled CCD camera (QImaging, Retiga EX) and analyzed by the computer-generated morphometric analysis system (Image-Pro Plus software, Media Cybernetics, Silver Springs, Md.) as previously described.

normal skin explants = experiment: Organ culture of skin explants (Movat pentachrome morphometry, insoluble elastin); details: 200 μM, 10-day-long daily treatment
Experimental: Organ culture of skin explants—Fragments of normal skin, stretch-marked skin and dermal scars collected during […] 5% FBS, in the presence or absence of 200 μM SA alone or in combination with 200 μM DMOG as described in figure legends. The parallel quadruplicate explants from each experimental group were additionally maintained in the presence 2 μCi of [3H]-valine/ml and then subjected to the assay of insoluble elastin. The parallel explants from each experimental groups were also evaluated after pentachrome Movat's staining which allows for clear marking of elastic fibers. In each experimental group, 50 sections derived from quadruplicate explants were analyzed.

insulin receptor = experiment: Insulin receptor phosphorylation (immuno-precipitation, anti-phospho-tyrosine Western blot); details: 100 μM SA, basic or insulin-induced
Experimental: At the end of each experiment cells were submerged in the lysis buffer containing a broad-range phosphatase inhibitor. The polyclonal antibodies recognizing either the β subunits of the IGF-IR or the β subunit of the insulin receptor were immobilized on separate sets of the IgG-bearing magnetic beads (Invitrogen Canada Inc, Burlington, ON) and then incubated for 1 hour with the aliquots of the cell lysates containing 400 μg of protein as described in the manufacturer protocol. The beads bearing the resulting immuno-precipitation products were re-suspended in sample buffer and the released proteins were resolved with SDS-PAGE and subjected to Western blotting with a monoclonal anti-p-Tyr (PY99) antibody from Santa Cruz Biotechnology Inc. (Santa Cruz, Calif.) and then with HRP-conjugated goat anti-mouse secondary antibody.

explants of dermal scars = experiment: Organ culture of skin explants (histochemistry, insoluble elastin); details: 200 μM SA
Experimental: Organ culture of skin explants—Fragments of normal skin, stretch-marked skin and dermal scars collected during plastic surgery procedures were cut into multiple 4 mm2 pieces and maintained for 7 days in DMEM medium containing 5% FBS, […] The parallel quadruplicate explants from each experimental group were additionally maintained in the presence 2 μCi of [3H]-valine/ml and then subjected to the assay of insoluble elastin. The parallel explants from each experimental groups were also evaluated after pentachrome Movat's staining which allows for clear marking of elastic fibers. In each experimental group, 50 sections derived from quadruplicate explants were analyzed.

[3] = test system: reactive oxygen species (ROS); experiment: Intracellular ROS with CM-H2DCFDA probe (fluorescence microscope, flow cytophotometry); details: 100 μM, 2 hours
Experimental: Quantification of Intracellular free radicals-reactive oxygen species (ROS)—To assess the levels of ROS, quadruplicate cultures of normal skin fibroblasts were exposed to 10 μM of ROS-sensitive CM-H2DCFDA fluorescent probe (Molecular Probes, Eugene, Oreg.) for 30 minutes. This probe passively diffuses into the cell interior and only upon oxidation is a fluorescent product released that can be visualized under a fluorescent microscope or captured by flow cytophotometry when excited at 480 nm. Fibroblasts were then maintained for 30 minutes in the presence or absence of 400 μM probenecid, then incubated either for 2 or 24 hours with and without 100 μM AA or 100 μM SA. At the end of these periods the images were captured using a fluorescent microscope under identical parameters of contrast and brightness. The ROS production was also assessed by flow cytophotometry (λ excitation 480 nm; λ emission 520 nm), using FACSCalibur, Beckton Dickinson Instrument.

Structure (SMILES): O=C1O[C@H]([C@@H](O)CO)C([O-])=C1O.[Na+] [SA, (+)-sodium L-ascorbate]
- increase in elastin deposition [1]: 22%+/−4%
- deposition of immuno-detected collagen fibers [2]: more potent up-regulation in the deposition of immuno-detected collagen fibers than 100 μM AA; also recorded: more potent upregulation in collagen fibers deposition than 100 μM AA
- deposition of new elastic fibers (normal skin explants): enhanced deposition of new elastic fibers
- phosphorylation of insulin receptor (insulin receptor): did not induce heightened phosphorylation; also recorded: does not enhance basic or insulin-induced phosphorylation of insulin receptor
- production of new elastic fibers (explants of dermal scars): initiated production of new elastic fibers
- levels of intracellular ROS [3]: significantly lower levels of ROS
